Experimental findings from US20260373266A1, “PROTEIN DEGRADERS AND USES THEREOF” (KYMERA THERAPEUTICS, INC., priority 2022, published 2026) are described below.

SMILES strings stand for the structures.

T1 sequence (Q9Y4B6 1077-1390): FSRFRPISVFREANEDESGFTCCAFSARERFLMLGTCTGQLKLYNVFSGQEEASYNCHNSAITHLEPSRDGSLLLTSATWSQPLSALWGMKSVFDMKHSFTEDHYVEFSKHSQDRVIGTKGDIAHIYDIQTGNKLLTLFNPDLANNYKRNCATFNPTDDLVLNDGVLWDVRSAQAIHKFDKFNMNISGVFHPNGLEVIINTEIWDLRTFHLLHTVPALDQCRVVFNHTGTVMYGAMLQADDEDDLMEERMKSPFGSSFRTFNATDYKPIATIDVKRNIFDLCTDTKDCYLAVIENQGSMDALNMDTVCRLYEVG

The first test concerns the target T1, DCAF1 WD40 domain (residues 1077-1390) (Homo sapiens, UniProt Q9Y4B6).
T1 construct: DCAF1 WD40 domain (residues 1077-1390)
Kind of test: DCAF1 binding assay by SPR (Biacore 8K+), DCAF1-3 KD. As to conditions: 25 °C, read-out: DCAF1-3 SPR (KD). (In SPR one partner is held on a chip, and binding of the other changes the refractive index at the surface.)
On to `Oc1ccc(N2CCOCC2)cc1N[C@@H]1CCCN(c2cccc(F)c2)C1` [I-325], for which the dissociation constant Kd was above 200 µM.

As to `NCCOCCOCCOCCOCCOCC(=O)c1[nH]cc(C(=O)N[C@@H](CC(N)=O)c2cccc(Cl)c2)c1-c1ccccc1F` [I-675], the Kd is below 10 µM.

`C=CC(=O)NCC1CCCN(c2ccnc(N[C@@H]3CCCN(c4cccc(F)c4)C3)c2)C1` (some centres unmarked) [I-634]: the Kd lay within 10 to 100 µM.

In the case of `Cc1c(F)ccc(F)c1-c1c(C(=O)N[C@@H](CC(N)=O)c2cccc(Cl)c2)cn(C)c1C(=O)c1ccc(OCCOCCOCCOCCOCCN)cc1` [I-1017], the Kd is below 10 µM.

Turning to `Cc1cc(Cl)cc([C@H](CC(N)=O)NC(=O)c2cn[nH]c2-c2c(C)cccc2F)c1` [I-737], the dissociation constant (Kd) was above 200 µM.

Turning to `Fc1cccc(N2CCC[C@@H]3CN(c4cc(N5CCCCC5)ccn4)C[C@@H]32)c1` [I-668], the Kd is 10 to 100 µM.

As to `NC(=O)CCc1cccc(N2CCC[C@H]3[C@@H]2CCN3c2cc(N3CCCCC3)ccn2)c1` [I-881], the Kd was below 10 µM.

As to `c1cc2ccc(N3CCC[C@@H](Nc4cc(N5CCOCC5)ncn4)C3)cc2cn1` [I-402], the Kd is above 200 µM.

`Cc1c(F)ccc(F)c1-c1[nH]ncc1C(=O)N[C@@H](CC(=O)N1CCN(C(=O)OCc2ccccc2)CC1)c1cccc(Cl)c1` [I-884]: the equilibrium dissociation constant (Kd) was below 10 µM.

Turning to `Fc1cccc(N2CC[C@@]3(CCN(c4cc(N5CCCCC5)ccn4)C3)C2)c1` [I-659], the dissociation constant Kd fell in the range of 10 to 100 µM.

For `NC(=O)C[C@H](NC(=O)c1ccc(N)nc1-c1ccccc1F)c1cccc(Cl)c1` [I-588], the Kd lay in the range of 10 to 100 µM.

For `OCc1cnc(N2CCOCC2)cc1N[C@@H]1CCCN(c2cccc(F)c2)C1` [I-410], the Kd was above 200 µM.

`O=C(Nc1nc2c(s1)CCCC2)[C@@H]1CCCN(c2cccc(F)c2)C1` [I-669]: the Kd is above 200 µM.

Turning to `NC(=O)C[C@H](NC(=O)c1c[nH]nc1-c1cccc2cc[nH]c12)c1cccc(Cl)c1` [I-235], the Kd was above 200 µM.

On to `NC(=O)C[C@H](NC(=O)c1[nH]nc(Nc2ccncn2)c1-c1ccccc1F)c1cccc(Cl)c1` [I-168], for which the Kd is above 200 µM.

As to `C=CC(=O)NCCCN1CCN(c2ccnc(N3CC[C@@H]4[C@H]3CCCN4c3cccc(F)c3)c2)CC1` [I-846], the Kd was in the range of 10 to 100 µM.

In the case of `NC(=O)[C@@H]1CC[C@H](Nc2cc(N3CCCCC3)ccn2)CN1c1cccc(F)c1` [I-1027], the dissociation constant Kd fell in the range of 10 to 100 µM.

As to `NC(=O)C[C@H](NC(=O)c1cn[nH]c1-c1cccnc1)c1cccc(Cl)c1` [I-127], the Kd was in the range of 10 to 100 µM.

As to `CCN1CCN(c2cc(N[C@@H]3CCCN(c4cccc(F)c4)C3)ncn2)CC1` [I-375], the equilibrium dissociation constant (Kd) is above 200 µM.

Regarding `C=CC(=O)N(C)[C@H]1C[C@H](N(C)c2ccnc(N[C@@H]3CCCN(c4cccc(F)c4)C3)c2)C1` [I-480], the Kd is above 200 µM.

Take `CN1CCC(n2cc(N3CCC[C@@H](Nc4cc(N5CCOCC5)ccn4)C3)cn2)CC1` [I-419]: the dissociation constant Kd was above 200 µM.

Regarding `C[n+]1ccc(N2CCOCC2)cc1N[C@@H]1C[C@@H](O)CN(c2cccc(F)c2)C1` [I-520], the Kd was above 200 µM.

As to `Nc1nc(N[C@@H]2CCCN(c3cccc(F)c3)C2)cc(N2CCOCC2)n1` [I-368], the Kd is above 200 µM.

In the case of `C=CC(=O)N1CCN(c2ccnc(N[C@@H]3CCCN(c4cccc(F)c4)C3)c2)CC1` [I-446], the dissociation constant (Kd) was above 200 µM.

In the case of `Fc1cccc(N2CCC[C@@H](n3ccc4c(N5CCOCC5)ncnc43)C2)c1` [I-59], the dissociation constant Kd fell in the range of 100 to 200 µM.

With `OCCC[C@@H]1C[C@H]2[C@H](CCCN2c2cccc(F)c2)N1c1cc(N2CCCCC2)ccn1` [I-830], the Kd fell in the range of 10 to 100 µM.

Consider `COCCOCCOCC[C@@H]1CN(c2cc(N3CCCCC3)ccn2)[C@H]2CCCN(c3cccc(F)c3)[C@@H]12` [I-950], for which the dissociation constant (Kd) fell in the range of 10 to 100 µM.

Take `NC(=O)C[C@](CO)(NC(=O)c1c[nH]nc1-c1ccccc1F)c1cccc(Cl)c1` [I-253]: the equilibrium dissociation constant (Kd) was above 200 µM.

Consider `Cc1sc2c(c1C)C(c1ccc(Cl)cc1)=N[C@@H](CC(=O)NCCOCCOCCOCCOCCOCCOCCn1ncc(C(=O)N[C@@H](CC(N)=O)c3cccc(Cl)c3)c1-c1ccccc1F)c1nnc(C)n1-2` [I-492], for which the equilibrium dissociation constant (Kd) was above 200 µM.

`Cc1ccc(-c2[nH]ncc2C(=O)N[C@@H](CC(N)=O)c2cccc(Cl)c2)c(F)c1` [I-506]: the Kd was below 10 µM.

For the compound `C=CC(=O)Nc1cccc(N2CCC[C@@H](Nc3cc(N4CCOCC4)ccn3)C2)c1` [I-450], the Kd is above 200 µM.

With `Cc1c(F)ccc(F)c1-c1c(C(=O)N[C@@H](CC(N)=O)c2cccc(Cl)c2)cn(C)c1C(=O)c1ccc(OCCOCCOCCOCCN)cc1` [I-1024], the equilibrium dissociation constant (Kd) is below 10 µM.

Take `NC(=O)CCc1cccc(N2CCC[C@@H](Nc3cc(N4CCOCC4)ccn3)C2)c1` [I-777]: the Kd was in the range of 10 to 100 µM.

As for `c1ccc(N2CCC[C@H]3[C@@H]2CCN3c2cc(N3CC4CC(C4)C3)ccn2)cc1` [I-710], the equilibrium dissociation constant (Kd) was in the range of 10 to 100 µM.

`Fc1cccc(N2CCC3CCCc4cnc(N5CCOCC5)cc4N[C@H]3C2)c1` (some centres unmarked) [I-226]: the equilibrium dissociation constant (Kd) is above 200 µM.

As to `NC(=O)C[C@H](NC(=O)[C@H]1C[C@@](O)(c2ccccc2)C1)c1cccc(Cl)c1` [I-445], the equilibrium dissociation constant (Kd) is above 200 µM.

As to `NC[C@@H]1C[C@@H](Nc2cc(N3CCCCC3)ccn2)CN(c2cccc(F)c2)C1` [I-1040], the dissociation constant (Kd) lay within 10 to 100 µM.

Turning to `CN(c1ccnc(N[C@@H]2CCCN(c3cccc(F)c3)C2)c1)C1CCCCC1` [I-578], the dissociation constant (Kd) lay in the range of 10 to 100 µM.

`Fc1cccc(N2C3CC[C@H]2CC[C@H]3Nc2nccc(N3CCOCC3)n2)c1` (stereo in doubt) [I-60]: the dissociation constant (Kd) lay within 100 to 200 µM.

Turning to `Cc1cn2cc(N3CCC[C@@H](Nc4cc(N5CCOCC5)ccn4)C3)ccc2n1` [I-763], the equilibrium dissociation constant (Kd) was in the range of 10 to 100 µM.

As to `CCN(c1cc(N2CCOCC2)ncn1)[C@@H]1CCCN(c2cccc(F)c2)C1` [I-386], the dissociation constant (Kd) was above 200 µM.

As to `C=CC(=O)N1CCC1C(=O)N1CCN(c2ccnc(N[C@@H]3CCCN(c4cccc(F)c4)C3)c2)CC1` (some centres unmarked) [I-464], the equilibrium dissociation constant (Kd) was above 200 µM.

On to `Cc1sc2c(c1C)C(c1ccc(Cl)cc1)=N[C@@H](CC(=O)NCCOCCOCCOCCOCCOCCn1ncc(C(=O)N[C@@H](CC(N)=O)c3cccc(Cl)c3)c1-c1ccccc1F)c1nnc(C)n1-2` [I-488], for which the Kd fell in the range of 10 to 100 µM.

Regarding `NC(=O)C[C@H](NC(=O)c1c[nH]nc1-c1cc(C(=O)O)ccc1F)c1cccc(Cl)c1` [I-269], the Kd is above 200 µM.

In the case of `Cc1cccc(N2CCC[C@@H]3[C@H]2CCN3c2cc(N3CC4CC(C4)C3)ccn2)c1` [I-706], the Kd is below 10 µM.

For the compound `Nc1ccc(N[C@@H]2CCCN(c3cccc(F)c3)C2)cc1C1CCCCC1` [I-930], the Kd was in the range of 10 to 100 µM.

For the compound `CCCCN1CCN(c2ccnc(N[C@@H]3CCCN(c4cccc(F)c4)C3)c2)CC1` [I-318], the Kd was above 200 µM.

`Fc1cccc(N2CCC[C@@H](Nc3cc(N4CCOCC4)ccn3)C2F)c1` (some centres unmarked) [I-260]: the Kd was above 200 µM.

`Oc1ccc(C2CCCCC2)cc1N[C@@H]1CCCN(c2cccc(F)c2)C1` [I-921]: the equilibrium dissociation constant (Kd) fell in the range of 10 to 100 µM.

Consider `C[C@H](NC(=O)c1c[nH]nc1-c1ccccc1F)c1cccc(Cl)c1` [I-106], for which the dissociation constant Kd was 10 to 100 µM.

Regarding `Fc1cccc(N2CCC[C@@H](N(CCc3ccccc3)c3nccc(N4CCOCC4)n3)C2)c1` [I-323], the dissociation constant Kd is above 200 µM.

Regarding `CN1CCN(c2cc(N[C@@H]3CCCN(c4cccc(F)c4)C3)ncn2)CC1` [I-374], the dissociation constant Kd was above 200 µM.

Turning to `Fc1cccc(N2CCCC(Nc3cc(N4CCOCC4)ccn3)C23CC(F)(F)C3)c1` (centres unmarked) [I-296], the Kd is above 200 µM.

Regarding `NC(=O)C[C@H](NC(=O)c1ccc(C#Cc2ccccc2)cc1)c1cccc(Cl)c1` [I-438], the dissociation constant Kd was above 200 µM.

For the compound `NC(=O)C[C@H](NC(=O)c1c[nH]nc1-c1cc(=O)[nH]cn1)c1cccc(Cl)c1` [I-238], the dissociation constant (Kd) is above 200 µM.

As for `Fc1cccc(N2C[C@@H](F)C[C@@H](Nc3cc(N4CCOCC4)ccn3)C2)c1` [I-541], the Kd is 100 to 200 µM.

For `NC(=O)C[C@@H](NC(=O)c1cn[nH]c1-c1ncccc1F)c1cccc(Cl)c1` [I-529], the Kd fell in the range of 10 to 100 µM.

For the compound `Cc1cccc(F)c1-c1[nH]ncc1C(=O)N[C@@H](CC(N)=O)c1cccc(Cl)c1` [I-149], the dissociation constant (Kd) is below 10 µM.

Take `Fc1cccc(N2CCC[C@]3(CCc4cnc(N5CCOCC5)cc4N3)C2)c1` [I-214]: the dissociation constant (Kd) was above 200 µM.

Turning to `C[C@@H](C(N)=O)[C@H](NC(=O)c1c[nH]nc1-c1ccccc1F)c1cccc(Cl)c1` [I-148], the Kd is below 10 µM.

With `O=C1Cc2cnc(N3CCC[C@@H](Nc4cc(N5CCOCC5)ccn4)C3)cc2N1` [I-434], the Kd is above 200 µM.

Consider `COCCOCC[C@H]1CCCN(c2ccnc(N3CC[C@@H]4[C@H]3CCCN4c3cccc(F)c3)c2)C1` [I-713], for which the Kd was 10 to 100 µM.

For `Fc1cccc(N[C@@H]2CCCN(c3cc(N4CCCCC4)ccn3)C2)c1` [I-645], the Kd was above 200 µM.

Consider `C=CC(=O)NCCCC1CCN(c2ccnc(N3CC[C@H]4[C@@H]3CCCN4c3cccc(F)c3)c2)CC1` [I-712], for which the dissociation constant Kd was below 10 µM.

In the case of `NC(=O)C[C@](NC(=O)c1c[nH]nc1-c1ccccc1F)(c1cccc(Cl)c1)C1CC1` [I-254], the equilibrium dissociation constant (Kd) was above 200 µM.

In the case of `NC(=O)C[C@H](NC(=O)c1c[nH]c(-c2ccc[nH]2)c1-c1ccccc1F)c1cccc(Cl)c1` [I-600], the Kd is below 10 µM.

With `N#CCCN(c1cc(N2CCOCC2)ccn1)[C@@H]1CCCN(c2cccc(F)c2)C1` [I-289], the Kd is above 200 µM.

With `Fc1cccc(N2CCC[C@@H](Nc3cc(N4CCOCC4)ncc3C(F)(F)F)C2)c1` [I-405], the Kd is above 200 µM.

Still in this test, the particulars now being: DCAF1-3 SPR (KD), 25 °C.
As for `Fc1cccc(N2CCC[C@@H]3[C@H]2CCN3c2cc(N3CCCCC3)ccn2)c1` [I-579, (3aR,7aR)-4-(3-fluorophenyl)-1-(4-(piperidin-1-yl)pyridin-2-yl)octahydro-1H-pyrrolo[3,2-b]pyridine], the dissociation constant Kd is below 10 µM.

In turn, `Cc1c(F)ccc(F)c1-c1c(C(=O)N[C@@H](CC(N)=O)c2cccc(Cl)c2)cn(C)c1C#N` [I-887, (S)—N-(3-amino-1-(3-chlorophenyl)-3-oxopropyl)-5-cyano-4-(3,6-difluoro-2-methylphenyl)-1-methyl-1H-pyrrole-3-carboxamide] registered a dissociation constant Kd below 10 µM.

Regarding `CCCCN(c1nccc(N2CCOCC2)n1)[C@@H]1CCCN(c2cccc(F)c2)C1` [I-43], the Kd was above 200 µM.

In general, Kd refers to a measure of binding affinity in units of concentration.
